Experimental data: patent US20080014186A1, “Hla-A24 or Hla-A2 Binding Peptides of Parathyroid Hormone-Related Protein” (GREEN PEPTIDE CO., LTD., priority 2004, published 2008)
Values belong to the sequence of their own block, whether it stands above or below them.

What was measured:
[1] = system: IgG in plasma of HLA-A2^+ healthy donors and prostate cancer patients; assay: Peptide-specific IgG in plasma by ELISA (HLA-A2-binding PTHrP peptides); set-up: species or system human; details: for IgG reactive to the peptide in plasma (difference of OD): 1:100-diluted plasma; for Total (IgG-positive donors / donors tested): HLA-A2^+ healthy donors; for Total (IgG-positive patients / patients tested): HLA-A2^+ prostate cancer patients
Method: Peptide-specific IgG levels in the plasma were measured by ELISA, as previously reported. In brief, peptide (20 μg/well)-immobilized plates were blocked with Block Ace (Yukijirushi, Tokyo, Japan) and washed with 0.05% Tween20-PBS, after which 100 μl/well of plasma sample diluted with 0.05% Tween20-Block Ace was added to the plate. After 2 hours incubation at 37° C., the plates were washed and further incubated for 2 hours with a 1:1000-diluted rabbit anti-human IgG (γ-chain-specific) (DAKO, Glostrup, Denmark). The plates were washed, and then 100 μl of 1:100-diluted goat anti-rabbit IgG-conjugated horseradish peroxidase (EnVision, DAKO) was added to each well, and the plates were then incubated at room temperature for 40 min. After the plates were washed once, 100 μl/well of tetramethyl benzidine substrate solution (KPL, Guildford, UK) was added, and the reaction was stopped by the addition of 1 M phosphoric acid. The values are shown as optical density (OD) units/ml, and responses to the HIV peptide were subtracted. IgG reactive to a corresponding PTHrP peptide was judged to be positive when the difference of the OD in 1:100-diluted plasma exceeded 0.05. The results that IgG reactive to either the PTHrP102-111 or the […] peptide was detected in 8 of 10 healthy donors and in 7 of 10 prostate cancers are shown in Table 2 hereinafter.
In a similar way to Example 3, it was examined whether IgGs reactive to peptides of PTHrP 42-51 and PTHrP 59-67 could be detected in the plasma of 10 healthy donors and 10 cancer patients. The cut-off value at 1:100-diluted plasma was ODO.054.

[2] = system: PBMCs of HLA-A2^+ healthy donors and prostate cancer patients; assay: Assay for peptide-specific CTLs in PBMCs (IFN-γ ELISA, peptide-pulsed T2 cells); type: cell-based, human; details: for INF-γ production: T2 cells; for Total (donors with significant peptide-specific IFN-γ production / donors tested) / Total (patients with significant peptide-specific IFN-γ production / patients tested): p < 0.05
[3] = HLA-A2^+ prostate cancer patient #1
[4] = HLA-A2^+ prostate cancer patient #2
[5] = HLA-A2^+ prostate cancer patient #3
[6] = HLA-A2^+ prostate cancer patient #4
[7] = HLA-A2^+ prostate cancer patient #5
[8] = HLA-A2^+ prostate cancer patient #6
[9] = HLA-A2^+ prostate cancer patient #7
[10] = HLA-A2^+ prostate cancer patient #8
[11] = HLA-A2^+ prostate cancer patient #9
[12] = HLA-A2^+ prostate cancer patient #10
[13] = HLA-A2^+ healthy donor #1 (A0201)
[14] = HLA-A2^+ healthy donor #2 (A0201)
[15] = HLA-A2^+ healthy donor #3 (A0201)
[16] = HLA-A2^+ healthy donor #4 (A0201)
[17] = HLA-A2^+ healthy donor #5 (A0206)
[18] = HLA-A2^+ healthy donor #6 (A0206)
[19] = HLA-A2^+ healthy donor #7 (A0206)
[20] = HLA-A2^+ healthy donor #8 (A0206)
[21] = HLA-A2^+ healthy donor #9 (A0206)
[22] = HLA-A2^+ healthy donor #10 (A0207)
[23] = HLA-A2^+ prostate cancer patient #1 (A0206)
[24] = HLA-A2^+ prostate cancer patient #2 (A0210)
[25] = HLA-A2^+ prostate cancer patient #3 (A0210)
[26] = HLA-A2^+ prostate cancer patient #4 (A0206)
[27] = HLA-A2^+ prostate cancer patient #5 (A0206)
[28] = HLA-A2^+ prostate cancer patient #6 (A0207)
[29] = HLA-A2^+ prostate cancer patient #7 (A0206)
[30] = HLA-A2^+ prostate cancer patient #8 (A0206)
[31] = HLA-A2^+ prostate cancer patient #9 (A0201)
[32] = HLA-A2^+ prostate cancer patient #10 (A0201)
[33] = HLA-A2^+ prostate cancer patients

IgG reactive to the peptide in plasma (difference of OD) ([1]; HLA-A2^+ healthy donor #6): 0.0865 OD
IgG reactive to the peptide in plasma (difference of OD) ([1]; HLA-A2^+ healthy donor #7): 0.089 OD
IgG reactive to the peptide in plasma (difference of OD) ([1]; HLA-A2^+ healthy donor #8): 0.193 OD
IgG reactive to the peptide in plasma (difference of OD) ([1]; HLA-A2^+ healthy donor #9): 0.0925 OD
IgG reactive to the peptide in plasma (difference of OD) ([1]; HLA-A2^+ healthy donor #10): 0.099 OD
Total (IgG-positive donors / donors tested) [1]: 5/10
IgG reactive to the peptide in plasma (difference of OD) [1, 5]: 0.078 OD
IgG reactive to the peptide in plasma (difference of OD) [1, 12]: 0.1515 OD
Total (IgG-positive patients / patients tested) [1]: 2/10
Sequence: TSTTSLELD [PTHrP 165-173, previously reported PTHrP peptide generating CTLs from HLA-A*0201 healthy donors [17], reference compound]
IgG reactive to the peptide in plasma (difference of OD) ([1]; HLA-A2^+ healthy donor #1): — (IgG reactive to a corresponding peptide was judged to be positive when a difference of OD in a 1:100-diluted plasma was more than 0.054.)
IgG reactive to the peptide in plasma (difference of OD) ([1]; HLA-A2^+ healthy donor #2): — (IgG reactive to a corresponding peptide was judged to be positive when a difference of OD in a 1:100-diluted plasma was more than 0.054.)
IgG reactive to the peptide in plasma (difference of OD) ([1]; HLA-A2^+ healthy donor #3): — (IgG reactive to a corresponding peptide was judged to be positive when a difference of OD in a 1:100-diluted plasma was more than 0.054.)
IgG reactive to the peptide in plasma (difference of OD) ([1]; HLA-A2^+ healthy donor #4): — (IgG reactive to a corresponding peptide was judged to be positive when a difference of OD in a 1:100-diluted plasma was more than 0.054.)
IgG reactive to the peptide in plasma (difference of OD) ([1]; HLA-A2^+ healthy donor #5): — (IgG reactive to a corresponding peptide was judged to be positive when a difference of OD in a 1:100-diluted plasma was more than 0.054.)
IgG reactive to the peptide in plasma (difference of OD) [1, 3]: — (IgG reactive to a corresponding peptide was judged to be positive when a difference of OD in a 1:100-diluted plasma was more than 0.054.)
IgG reactive to the peptide in plasma (difference of OD) [1, 4]: — (IgG reactive to a corresponding peptide was judged to be positive when a difference of OD in a 1:100-diluted plasma was more than 0.054.)
IgG reactive to the peptide in plasma (difference of OD) [1, 6]: — (IgG reactive to a corresponding peptide was judged to be positive when a difference of OD in a 1:100-diluted plasma was more than 0.054.)
IgG reactive to the peptide in plasma (difference of OD) [1, 7]: — (IgG reactive to a corresponding peptide was judged to be positive when a difference of OD in a 1:100-diluted plasma was more than 0.054.)
IgG reactive to the peptide in plasma (difference of OD) [1, 8]: — (IgG reactive to a corresponding peptide was judged to be positive when a difference of OD in a 1:100-diluted plasma was more than 0.054.)
IgG reactive to the peptide in plasma (difference of OD) [1, 9]: — (IgG reactive to a corresponding peptide was judged to be positive when a difference of OD in a 1:100-diluted plasma was more than 0.054.)
IgG reactive to the peptide in plasma (difference of OD) [1, 10]: — (IgG reactive to a corresponding peptide was judged to be positive when a difference of OD in a 1:100-diluted plasma was more than 0.054.)
IgG reactive to the peptide in plasma (difference of OD) [1, 11]: — (IgG reactive to a corresponding peptide was judged to be positive when a difference of OD in a 1:100-diluted plasma was more than 0.054.)
INF-γ production [2, 13]: 0 pg/mL
INF-γ production [2, 14]: 222 pg/mL
INF-γ production [2, 15]: 0 pg/mL
INF-γ production [2, 16]: 294 pg/mL
INF-γ production [2, 17]: 0 pg/mL
INF-γ production [2, 18]: 0 pg/mL
INF-γ production [2, 19]: 27 pg/mL
INF-γ production [2, 20]: 325 pg/mL
INF-γ production [2, 21]: 395 pg/mL
INF-γ production [2, 22]: 46 pg/mL
induced peptide-specific CTLs, number of donors ([2]; HLA-A2^+ healthy donors): 4 of 10
Total (donors with significant peptide-specific IFN-γ production / donors tested) ([2]; HLA-A2^+ healthy donors): 4/10
INF-γ production [2, 23]: 202 pg/mL
INF-γ production [2, 24]: 26 pg/mL
INF-γ production [2, 25]: 60 pg/mL
INF-γ production [2, 26]: 151 pg/mL
INF-γ production [2, 27]: 103 pg/mL
INF-γ production [2, 28]: 0 pg/mL
INF-γ production [2, 29]: 0 pg/mL
INF-γ production [2, 30]: 80 pg/mL
INF-γ production [2, 31]: 0 pg/mL
INF-γ production [2, 32]: 24 pg/mL
induced peptide-specific CTLs (peptide-specific IFN-γ production), number of patients [2, 33]: 3 of 10
Total (patients with significant peptide-specific IFN-γ production / patients tested) [2, 33]: 3/10

IgG reactive to the peptide in plasma (difference of OD) ([1]; HLA-A2^+ healthy donor #1): 0.0745 OD
IgG reactive to the peptide in plasma (difference of OD) ([1]; HLA-A2^+ healthy donor #2): 0.092 OD
IgG reactive to the peptide in plasma (difference of OD) ([1]; HLA-A2^+ healthy donor #4): 0.128 OD
IgG reactive to the peptide in plasma (difference of OD) ([1]; HLA-A2^+ healthy donor #5): 0.0575 OD
IgG reactive to the peptide in plasma (difference of OD) ([1]; HLA-A2^+ healthy donor #8): 0.0585 OD
Total (IgG-positive donors / donors tested) [1]: 5/10
IgG reactive to the peptide in plasma (difference of OD) [1, 9]: 0.0655 OD
IgG reactive to the peptide in plasma (difference of OD) [1, 12]: 0.112 OD
Total (IgG-positive patients / patients tested) [1]: 2/10
Sequence: YLTQETNKV [PTHrP 103-111]
IgG reactive to the peptide in plasma (difference of OD) ([1]; HLA-A2^+ healthy donor #3): — (IgG reactive to a corresponding peptide was judged to be positive when a difference of OD in a 1:100-diluted plasma was more than 0.054.)
IgG reactive to the peptide in plasma (difference of OD) ([1]; HLA-A2^+ healthy donor #6): — (IgG reactive to a corresponding peptide was judged to be positive when a difference of OD in a 1:100-diluted plasma was more than 0.054.)
IgG reactive to the peptide in plasma (difference of OD) ([1]; HLA-A2^+ healthy donor #7): — (IgG reactive to a corresponding peptide was judged to be positive when a difference of OD in a 1:100-diluted plasma was more than 0.054.)
IgG reactive to the peptide in plasma (difference of OD) ([1]; HLA-A2^+ healthy donor #9): — (IgG reactive to a corresponding peptide was judged to be positive when a difference of OD in a 1:100-diluted plasma was more than 0.054.)
IgG reactive to the peptide in plasma (difference of OD) ([1]; HLA-A2^+ healthy donor #10): — (IgG reactive to a corresponding peptide was judged to be positive when a difference of OD in a 1:100-diluted plasma was more than 0.054.)
IgG reactive to the peptide in plasma (difference of OD) [1, 3]: — (IgG reactive to a corresponding peptide was judged to be positive when a difference of OD in a 1:100-diluted plasma was more than 0.054.)
IgG reactive to the peptide in plasma (difference of OD) [1, 4]: — (IgG reactive to a corresponding peptide was judged to be positive when a difference of OD in a 1:100-diluted plasma was more than 0.054.)
IgG reactive to the peptide in plasma (difference of OD) [1, 5]: — (IgG reactive to a corresponding peptide was judged to be positive when a difference of OD in a 1:100-diluted plasma was more than 0.054.)
IgG reactive to the peptide in plasma (difference of OD) [1, 6]: — (IgG reactive to a corresponding peptide was judged to be positive when a difference of OD in a 1:100-diluted plasma was more than 0.054.)
IgG reactive to the peptide in plasma (difference of OD) [1, 7]: — (IgG reactive to a corresponding peptide was judged to be positive when a difference of OD in a 1:100-diluted plasma was more than 0.054.)
IgG reactive to the peptide in plasma (difference of OD) [1, 8]: — (IgG reactive to a corresponding peptide was judged to be positive when a difference of OD in a 1:100-diluted plasma was more than 0.054.)
IgG reactive to the peptide in plasma (difference of OD) [1, 10]: — (IgG reactive to a corresponding peptide was judged to be positive when a difference of OD in a 1:100-diluted plasma was more than 0.054.)
IgG reactive to the peptide in plasma (difference of OD) [1, 11]: — (IgG reactive to a corresponding peptide was judged to be positive when a difference of OD in a 1:100-diluted plasma was more than 0.054.)
INF-γ production [2, 13]: 34 pg/mL
INF-γ production [2, 14]: 217 pg/mL
INF-γ production [2, 15]: 9 pg/mL
INF-γ production [2, 16]: 0 pg/mL
INF-γ production [2, 17]: 0 pg/mL
INF-γ production [2, 18]: 0 pg/mL
INF-γ production [2, 19]: 0 pg/mL
INF-γ production [2, 20]: 0 pg/mL
INF-γ production [2, 21]: 0 pg/mL
INF-γ production [2, 22]: 0 pg/mL
Total (donors with significant peptide-specific IFN-γ production / donors tested) ([2]; HLA-A2^+ healthy donors): 1/10
INF-γ production [2, 23]: 144 pg/mL
INF-γ production [2, 24]: 41 pg/mL
INF-γ production [2, 25]: 57 pg/mL
INF-γ production [2, 26]: 86 pg/mL
INF-γ production [2, 27]: 0 pg/mL
INF-γ production [2, 28]: 68 pg/mL
INF-γ production [2, 29]: 49 pg/mL
INF-γ production [2, 30]: 29 pg/mL
INF-γ production [2, 31]: 56 pg/mL
INF-γ production [2, 32]: 0 pg/mL
Total (patients with significant peptide-specific IFN-γ production / patients tested) [2, 33]: 1/10
